Where a name gives a salt, the structure may show the parent alone. The source made the active and inactive calls.
Assays:
Protein Rev = Protein Rev (Human immunodeficiency virus type 1 group M subtype B (isolate HXB2)(HIV-1), UniProt P04618); assay: blockers of HIV Rev/RRE RNA complex – biochemical, fluorescence polarization, HIV-1, dose response (AID 434976); design: species or system Human immunodeficiency virus 1
[1] = target: Female germline-specific tumor suppressor gld-1 (Caenorhabditis elegans, UniProt Q17339); assay: blockers of GLD-1/TGE RNA complex formation – biochemical, fluorescence polarization, C. elegans, dose response (AID 2802);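 also: fluorescence polarization of labeled TGE RNA bound by purified gld-1 protein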
Fatty acid synthase [2] = target: T1, Fatty acid synthase (Homo sapiens, UniProt P49327); assay: inhibition of human FAS-TE enzyme activity – biochemical, kinetic fluorescence intensity, dose response (AID 624326); assay type: functional;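 also: rate of fluorescence rise from hydrolysis of a fluorogenic O-methyl fluorescein ester substrate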
Fatty acid synthase [3] = target: T1, Fatty acid synthase; assay: inhibition of human FAS-TE enzyme activity – biochemical, endpoint fluorescence intensity, uHTS hits, dose response (AID 624327); assay type: functional;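 also: fluorescence from hydrolysis of an O-methyl fluorescein acyl ester substrate by the enzyme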
X-box-binding protein 1 = X-box-binding protein 1 (Homo sapiens, UniProt P17861); assay type: functional, Cricetulus griseus;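 also: confirmatory dose-response counter-screen serving a CHOP assay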
Large T antigen = Large T antigen (Simian virus 40, UniProt P03070); assay type: functional, Betapolyomavirus macacae;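 also: Confirmatory-stage PubChem screen for compounds that inhibit SV40 T antigen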
[4] = target: T2, Long-chain-fatty-acid--AMP ligase FadD28 (Mycobacterium tuberculosis, UniProt P9WQ59); assay: Fluorescence polarization aasay to screen for inhibitors that compete for the binding of FadD28 to a bisubstrate Measured in Biochemical System Using Plate Reader - 2147-01_Inhibitor_Dose_CherryPick_Activity.; assay type: functional, Mycobacterium tuberculosis H37Rv
T2 sequence (P9WQ59 whole entry): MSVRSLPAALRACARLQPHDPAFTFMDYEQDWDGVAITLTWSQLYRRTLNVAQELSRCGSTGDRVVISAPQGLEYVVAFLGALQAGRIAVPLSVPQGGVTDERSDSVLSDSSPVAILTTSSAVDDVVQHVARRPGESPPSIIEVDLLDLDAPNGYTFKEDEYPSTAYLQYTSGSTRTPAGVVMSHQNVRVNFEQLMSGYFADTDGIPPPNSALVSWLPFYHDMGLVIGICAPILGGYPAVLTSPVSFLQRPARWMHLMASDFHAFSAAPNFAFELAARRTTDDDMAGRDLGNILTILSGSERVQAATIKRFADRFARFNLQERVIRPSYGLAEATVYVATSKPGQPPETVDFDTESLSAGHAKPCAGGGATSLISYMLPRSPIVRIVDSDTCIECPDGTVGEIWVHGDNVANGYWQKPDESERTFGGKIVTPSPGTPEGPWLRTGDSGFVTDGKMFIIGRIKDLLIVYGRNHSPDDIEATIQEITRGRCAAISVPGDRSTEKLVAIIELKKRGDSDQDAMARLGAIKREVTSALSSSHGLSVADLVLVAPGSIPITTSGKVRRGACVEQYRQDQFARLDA

[5] = target: Dual specificity tyrosine-phosphorylation-regulated kinase 1A (Rattus norvegicus, UniProt Q63470); assay type: biochemical, Homo sapiens
[6] = target: Cyclin-dependent kinase 5/CDK5 activator 1 (Homo sapiens, UniProt Q00535); assay: blockade of human CDK5 activity – biochemical, cherry-picked samples, set 2, dose response (AID 504545)
Cytochrome P450 3A4 = Cytochrome P450 3A4 (Homo sapiens, UniProt P08684); settings: Potency;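 also: confirmatory qHTS run detecting inhibitors and substrates of CYP3A4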
Cytochrome P450 1A2 = target: T3, Cytochrome P450 1A2 (Homo sapiens, UniProt P05177);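 also: PubChem cytochrome P450 panel assay, CYP1A2 panel member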
T3 sequence (P05177 whole entry): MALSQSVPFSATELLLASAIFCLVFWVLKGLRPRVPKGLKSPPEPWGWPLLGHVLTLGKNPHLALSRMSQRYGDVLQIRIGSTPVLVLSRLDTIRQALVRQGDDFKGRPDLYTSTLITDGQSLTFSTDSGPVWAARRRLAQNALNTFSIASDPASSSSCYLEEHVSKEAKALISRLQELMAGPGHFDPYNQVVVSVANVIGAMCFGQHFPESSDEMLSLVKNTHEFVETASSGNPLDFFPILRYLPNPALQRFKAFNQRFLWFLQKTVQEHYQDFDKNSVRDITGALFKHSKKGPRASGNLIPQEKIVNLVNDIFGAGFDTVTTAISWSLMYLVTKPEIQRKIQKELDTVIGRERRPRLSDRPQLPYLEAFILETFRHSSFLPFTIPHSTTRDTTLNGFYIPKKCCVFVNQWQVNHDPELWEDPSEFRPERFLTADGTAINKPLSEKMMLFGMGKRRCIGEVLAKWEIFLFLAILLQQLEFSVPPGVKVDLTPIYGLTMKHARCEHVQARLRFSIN

[7] = HEK-293T cell viability reduction – luminescence, B-cell screen hits, cytotoxicity control for BCR NF-kB inhibitor project, dose response (AID 489021); assay type: functional, cell-based;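 also: HEK-293T cells carrying an NF-kB luciferase reporter; cells exposed to compound for about 14 hours before viability readout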
Hexokinase HKDC1 = target: T4, Hexokinase HKDC1 (Homo sapiens, UniProt Q2TB90); assay: inhibition of HKDC1 glucose phosphorylation – biochemical, W721R variant, dose response (AID 504729); assay type: functional
T4 sequence (Q2TB90 whole entry): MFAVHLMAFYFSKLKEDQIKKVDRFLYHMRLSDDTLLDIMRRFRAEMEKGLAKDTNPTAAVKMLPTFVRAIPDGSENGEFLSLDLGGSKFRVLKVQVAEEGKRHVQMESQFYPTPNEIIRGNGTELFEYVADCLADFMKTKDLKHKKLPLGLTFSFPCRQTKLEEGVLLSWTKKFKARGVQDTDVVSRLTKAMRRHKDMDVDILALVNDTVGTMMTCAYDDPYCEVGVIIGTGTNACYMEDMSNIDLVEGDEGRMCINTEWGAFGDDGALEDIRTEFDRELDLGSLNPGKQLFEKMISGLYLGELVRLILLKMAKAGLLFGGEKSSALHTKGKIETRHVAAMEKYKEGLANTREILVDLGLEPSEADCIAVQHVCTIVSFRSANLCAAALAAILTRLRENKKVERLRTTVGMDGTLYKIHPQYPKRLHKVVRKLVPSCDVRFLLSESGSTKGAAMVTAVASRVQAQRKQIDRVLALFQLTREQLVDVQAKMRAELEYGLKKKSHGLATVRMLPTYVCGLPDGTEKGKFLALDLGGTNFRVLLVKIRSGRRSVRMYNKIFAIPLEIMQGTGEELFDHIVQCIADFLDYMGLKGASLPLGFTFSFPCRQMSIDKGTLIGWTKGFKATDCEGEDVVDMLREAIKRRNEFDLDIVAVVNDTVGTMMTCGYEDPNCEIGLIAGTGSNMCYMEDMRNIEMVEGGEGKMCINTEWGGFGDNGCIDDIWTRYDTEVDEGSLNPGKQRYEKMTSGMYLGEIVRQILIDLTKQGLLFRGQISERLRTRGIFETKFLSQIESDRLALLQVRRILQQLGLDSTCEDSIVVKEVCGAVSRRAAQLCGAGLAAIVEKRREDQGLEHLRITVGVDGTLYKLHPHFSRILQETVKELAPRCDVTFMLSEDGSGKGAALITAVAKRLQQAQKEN

cells [8] = assay type: functional, cell-based
[9] = viability loss of HPDE-C7K cells – cell-based, fluorescence, HTS, primary screen (AID 431); assay type: functional; settings: Homo sapiens
[10] = HPDE-C7 pancreatic duct cell viability loss – fluorescence, HTS (AID 430); assay type: functional, cell-based; settings: Homo sapiens
cells [11] = assay type: functional, cell-based; remark: listed apart in the source
[12] = target: G2/mitotic-specific cyclin-B1 (Homo sapiens, UniProt P14635); assay: HeLa cell cycle G2/M accumulation – FACS, mechanism study for Wee1 degradation inhibitor project, late-stage follow-up, panel member Cyclin B Degradation (AID 2088)
Wee1-like protein kinase = Wee1-like protein kinase (Homo sapiens, UniProt P30291); assay: HeLa cell cycle G2/M accumulation – FACS, mechanism study for Wee1 degradation inhibitor project, late-stage follow-up, panel member Wee1 Degradation (AID 2088)
[13] = target: T5, Voltage-dependent T-type calcium channel subunit alpha-1H (Homo sapiens, UniProt O95180); assay: Inhibitors of T-Type Calcium Channels. [Related pubchem assays (depositor defined):AID449739, AID463087, AID489005, AID493041, AID504579, AID504584, AID504619, AID504628]; assay type: functional
[14] = target: T6, Endoribonuclease toxin MazF (Escherichia coli K-12, UniProt P0AE70); assay: activation of MazEF endoribonuclease cleavage – biochemical, fluorescence, single-stranded RNA substrate, uHTS hits, dose response (AID 588481); assay type: functional
T6 sequence (P0AE70 whole entry): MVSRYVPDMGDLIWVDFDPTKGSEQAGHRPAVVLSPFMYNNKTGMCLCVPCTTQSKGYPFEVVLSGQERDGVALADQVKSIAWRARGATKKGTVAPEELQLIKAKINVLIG

[15] = target: T6, Endoribonuclease toxin MazF; assay: substrate-only fluorescence increase artefacts – biochemical, single-stranded RNase substrate, counter-screen for MazEF activator project, dose response (AID 588502); assay type: functional
[16] = target: T5, Voltage-dependent T-type calcium channel subunit alpha-1H; assay type: functional
[17] = target: Dual specificity protein phosphatase 3 (Homo sapiens, UniProt P51452); assay: inhibition constants for human DUSP3 – biochemical, colorimetric, SAR follow-up (AID 2004)
[18] = target: NACHT, LRR and PYD domains-containing protein 3 (Homo sapiens, UniProt Q96P20); assay: NALP3 inhibitors in yeast, dose response, luminescent (AID 488799); assay type: functional
Bcl-2-like protein 10 = Bcl-2-like protein 10 (Homo sapiens, UniProt Q9HD36); assay: Bcl-B/TR3 peptide binding disruption – biochemical, fluorescence polarization, FITC-TR3 peptide, selectivity assay for Bfl-1 inhibitor project, primary screen (AID 748);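 also: fluorescence polarization from a fluorescein-labelled TR3 peptide binding purified Bcl-B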
[19] = target: T7, Small ubiquitin-related modifier 1 (Homo sapiens, UniProt P63165); assay: SUMO1 protein-protein binding blockers, potency – biochemical, FRET, dose response (AID 624383); assay type: functional; settings: read-out: IC50_Mean
[20] = target: T7, Small ubiquitin-related modifier 1; assay: SUMO1 protein interaction blockers, potency – biochemical, fluorescence polarization, uHTS hits, dose response (AID 624382); assay type: functional; settings: read-out: IC50_Mean
[21] = Cytotoxicity screening for potential Inhibitors of Bacterial Capsule Biogenesis. [Related pubchem assays (depositor defined):AID488970]; assay type: functional
[22] = target: 26S proteasome non-ATPase regulatory subunit 14 (Homo sapiens, UniProt O00487); assay: inhibition of proteasome subunit RPN11 – biochemical, fluorescence polarization, uHTS hits, confirmation (AID 602368); assay type: functional
Prothrombin = Prothrombin (Bos taurus, UniProt P00735); assay: thrombin protease inhibitors – biochemical, fluorescence polarization, uHTS hits, dose response (AID 602369); assay type: functional
Vero = assay: cells; assay type: functional, cell-based; settings: Chlorocebus sabaeus
[23] = target: 72 kDa type IV collagenase (Homo sapiens, UniProt P08253); assay: Dose Response validation of uHTS RPN11 inhibitor hits using a MMP-2 Fluorescence assay.; assay type: functional

T7 sequence (P63165 whole entry): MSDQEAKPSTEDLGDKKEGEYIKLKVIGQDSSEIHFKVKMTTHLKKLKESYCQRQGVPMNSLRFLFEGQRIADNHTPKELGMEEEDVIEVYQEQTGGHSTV
T1 sequence (P49327 whole entry): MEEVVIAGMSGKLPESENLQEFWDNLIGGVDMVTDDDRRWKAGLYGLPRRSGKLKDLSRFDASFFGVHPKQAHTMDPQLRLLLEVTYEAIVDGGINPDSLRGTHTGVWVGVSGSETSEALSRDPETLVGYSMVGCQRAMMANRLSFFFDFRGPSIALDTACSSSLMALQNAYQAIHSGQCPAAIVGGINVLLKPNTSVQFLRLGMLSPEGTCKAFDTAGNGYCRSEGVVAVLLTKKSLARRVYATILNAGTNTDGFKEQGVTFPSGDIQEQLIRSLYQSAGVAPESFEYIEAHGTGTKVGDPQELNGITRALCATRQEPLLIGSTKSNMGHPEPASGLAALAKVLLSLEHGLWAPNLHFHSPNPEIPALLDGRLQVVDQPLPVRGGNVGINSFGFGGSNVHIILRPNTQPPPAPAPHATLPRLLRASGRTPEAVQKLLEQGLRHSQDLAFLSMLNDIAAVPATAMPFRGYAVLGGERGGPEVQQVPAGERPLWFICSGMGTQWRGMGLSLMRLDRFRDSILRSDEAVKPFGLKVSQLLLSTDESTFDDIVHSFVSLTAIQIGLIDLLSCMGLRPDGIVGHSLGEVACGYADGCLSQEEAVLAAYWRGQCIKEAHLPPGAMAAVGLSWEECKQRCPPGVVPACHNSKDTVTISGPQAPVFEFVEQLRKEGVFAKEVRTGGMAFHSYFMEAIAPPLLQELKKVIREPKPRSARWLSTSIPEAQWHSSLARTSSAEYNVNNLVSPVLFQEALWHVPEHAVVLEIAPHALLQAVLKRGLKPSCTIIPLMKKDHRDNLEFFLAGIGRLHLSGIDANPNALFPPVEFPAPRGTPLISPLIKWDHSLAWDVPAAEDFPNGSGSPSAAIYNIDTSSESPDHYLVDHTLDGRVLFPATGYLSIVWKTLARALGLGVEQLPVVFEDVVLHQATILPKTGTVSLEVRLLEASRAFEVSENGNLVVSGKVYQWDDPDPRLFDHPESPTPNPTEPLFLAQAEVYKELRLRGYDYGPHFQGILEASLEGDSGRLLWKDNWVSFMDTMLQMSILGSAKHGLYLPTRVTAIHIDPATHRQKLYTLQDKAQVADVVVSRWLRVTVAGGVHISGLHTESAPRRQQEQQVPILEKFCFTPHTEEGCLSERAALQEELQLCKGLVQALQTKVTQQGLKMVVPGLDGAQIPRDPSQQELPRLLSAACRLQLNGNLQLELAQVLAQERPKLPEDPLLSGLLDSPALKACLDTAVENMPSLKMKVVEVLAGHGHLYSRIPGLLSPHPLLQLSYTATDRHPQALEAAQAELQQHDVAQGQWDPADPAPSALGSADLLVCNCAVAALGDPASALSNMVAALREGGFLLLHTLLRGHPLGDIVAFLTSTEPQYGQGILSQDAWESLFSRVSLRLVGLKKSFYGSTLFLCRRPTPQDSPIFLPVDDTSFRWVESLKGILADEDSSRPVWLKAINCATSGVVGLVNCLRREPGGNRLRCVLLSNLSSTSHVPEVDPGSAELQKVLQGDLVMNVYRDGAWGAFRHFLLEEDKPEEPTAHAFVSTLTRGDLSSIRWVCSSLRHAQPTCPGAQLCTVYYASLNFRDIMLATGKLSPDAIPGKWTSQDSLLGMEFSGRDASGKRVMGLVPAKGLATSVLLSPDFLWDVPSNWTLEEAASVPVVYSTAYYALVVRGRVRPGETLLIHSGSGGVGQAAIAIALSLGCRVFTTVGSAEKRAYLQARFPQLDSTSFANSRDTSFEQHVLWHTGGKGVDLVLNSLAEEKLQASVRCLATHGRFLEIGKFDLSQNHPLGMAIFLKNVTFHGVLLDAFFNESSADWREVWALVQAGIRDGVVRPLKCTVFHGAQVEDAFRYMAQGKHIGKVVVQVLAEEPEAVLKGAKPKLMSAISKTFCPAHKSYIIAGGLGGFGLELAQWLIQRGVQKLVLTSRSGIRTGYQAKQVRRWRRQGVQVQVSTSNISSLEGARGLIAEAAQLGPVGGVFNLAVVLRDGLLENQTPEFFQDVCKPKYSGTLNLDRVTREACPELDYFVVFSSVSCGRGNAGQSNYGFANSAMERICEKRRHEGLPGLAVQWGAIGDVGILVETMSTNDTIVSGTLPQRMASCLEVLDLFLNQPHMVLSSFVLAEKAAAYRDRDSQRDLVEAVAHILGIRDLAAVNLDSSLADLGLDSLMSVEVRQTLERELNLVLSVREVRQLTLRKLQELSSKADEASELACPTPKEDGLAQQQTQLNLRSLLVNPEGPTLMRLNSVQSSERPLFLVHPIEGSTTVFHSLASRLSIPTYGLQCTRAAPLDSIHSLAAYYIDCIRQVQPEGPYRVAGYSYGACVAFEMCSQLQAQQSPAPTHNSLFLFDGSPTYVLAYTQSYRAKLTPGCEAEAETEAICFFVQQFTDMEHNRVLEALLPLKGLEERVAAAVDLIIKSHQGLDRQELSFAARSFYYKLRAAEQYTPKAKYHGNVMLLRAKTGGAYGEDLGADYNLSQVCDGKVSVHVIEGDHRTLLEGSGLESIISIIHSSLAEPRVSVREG
T5 sequence (O95180 whole entry): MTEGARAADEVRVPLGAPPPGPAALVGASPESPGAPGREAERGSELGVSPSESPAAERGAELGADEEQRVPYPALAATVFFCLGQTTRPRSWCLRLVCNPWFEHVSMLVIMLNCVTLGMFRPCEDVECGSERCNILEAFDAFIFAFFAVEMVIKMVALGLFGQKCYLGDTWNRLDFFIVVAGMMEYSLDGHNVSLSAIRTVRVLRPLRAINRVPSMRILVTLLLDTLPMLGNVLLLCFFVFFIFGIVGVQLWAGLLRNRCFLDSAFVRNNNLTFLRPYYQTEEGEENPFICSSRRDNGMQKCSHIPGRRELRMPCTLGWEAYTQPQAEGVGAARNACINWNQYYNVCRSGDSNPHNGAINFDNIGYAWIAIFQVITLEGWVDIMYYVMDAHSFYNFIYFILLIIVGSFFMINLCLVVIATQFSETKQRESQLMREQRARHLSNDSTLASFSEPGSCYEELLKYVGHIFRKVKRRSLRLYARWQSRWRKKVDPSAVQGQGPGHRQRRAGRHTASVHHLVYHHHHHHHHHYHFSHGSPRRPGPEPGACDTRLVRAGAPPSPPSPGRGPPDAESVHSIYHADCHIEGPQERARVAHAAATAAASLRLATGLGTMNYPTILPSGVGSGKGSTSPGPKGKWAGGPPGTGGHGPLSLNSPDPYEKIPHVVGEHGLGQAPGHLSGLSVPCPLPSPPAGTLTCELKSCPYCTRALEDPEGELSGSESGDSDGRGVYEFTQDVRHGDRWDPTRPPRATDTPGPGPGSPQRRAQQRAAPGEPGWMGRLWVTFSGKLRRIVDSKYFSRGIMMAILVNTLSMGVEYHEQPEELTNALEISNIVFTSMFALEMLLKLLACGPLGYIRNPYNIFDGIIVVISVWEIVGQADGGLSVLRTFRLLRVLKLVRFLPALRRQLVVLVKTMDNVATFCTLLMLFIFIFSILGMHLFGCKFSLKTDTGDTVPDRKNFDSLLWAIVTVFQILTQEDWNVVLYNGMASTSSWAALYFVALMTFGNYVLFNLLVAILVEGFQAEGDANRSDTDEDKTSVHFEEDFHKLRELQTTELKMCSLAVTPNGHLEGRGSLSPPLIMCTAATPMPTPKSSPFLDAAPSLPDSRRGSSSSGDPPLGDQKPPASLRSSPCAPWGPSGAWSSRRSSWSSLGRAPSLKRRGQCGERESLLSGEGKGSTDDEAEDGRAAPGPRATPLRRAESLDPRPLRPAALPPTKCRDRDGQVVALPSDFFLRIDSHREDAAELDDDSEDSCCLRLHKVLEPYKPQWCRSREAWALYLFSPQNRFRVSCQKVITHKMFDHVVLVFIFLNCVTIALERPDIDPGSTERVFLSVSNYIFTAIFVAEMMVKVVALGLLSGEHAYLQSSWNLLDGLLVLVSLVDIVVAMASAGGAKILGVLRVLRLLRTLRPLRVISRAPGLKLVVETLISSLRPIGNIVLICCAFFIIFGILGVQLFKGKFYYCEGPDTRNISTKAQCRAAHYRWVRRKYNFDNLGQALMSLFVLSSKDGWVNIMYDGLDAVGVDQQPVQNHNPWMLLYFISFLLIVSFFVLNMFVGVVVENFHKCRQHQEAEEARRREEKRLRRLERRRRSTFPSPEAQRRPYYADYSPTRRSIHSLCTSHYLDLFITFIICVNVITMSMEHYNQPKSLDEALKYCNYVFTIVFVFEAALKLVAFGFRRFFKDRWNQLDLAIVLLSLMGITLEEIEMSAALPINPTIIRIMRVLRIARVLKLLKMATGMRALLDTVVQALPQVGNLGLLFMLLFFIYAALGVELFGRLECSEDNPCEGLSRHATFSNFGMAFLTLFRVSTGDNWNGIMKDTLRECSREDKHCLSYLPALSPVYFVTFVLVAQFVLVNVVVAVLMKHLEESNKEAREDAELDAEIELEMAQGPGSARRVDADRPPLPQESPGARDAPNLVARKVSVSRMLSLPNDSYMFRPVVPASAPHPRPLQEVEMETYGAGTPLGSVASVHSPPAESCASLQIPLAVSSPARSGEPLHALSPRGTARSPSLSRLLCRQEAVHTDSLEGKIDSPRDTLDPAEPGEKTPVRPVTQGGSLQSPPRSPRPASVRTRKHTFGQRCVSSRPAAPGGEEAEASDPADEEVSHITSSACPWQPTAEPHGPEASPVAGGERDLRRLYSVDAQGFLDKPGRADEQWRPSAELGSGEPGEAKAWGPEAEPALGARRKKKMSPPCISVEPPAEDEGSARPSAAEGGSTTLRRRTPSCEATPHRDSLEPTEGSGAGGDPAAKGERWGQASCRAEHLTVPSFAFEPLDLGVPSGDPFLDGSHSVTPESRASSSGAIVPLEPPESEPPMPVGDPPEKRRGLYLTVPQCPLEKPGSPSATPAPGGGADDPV
Sequence of Dual specificity protein phosphatase 3 (P51452 whole entry, the tested form may be a part): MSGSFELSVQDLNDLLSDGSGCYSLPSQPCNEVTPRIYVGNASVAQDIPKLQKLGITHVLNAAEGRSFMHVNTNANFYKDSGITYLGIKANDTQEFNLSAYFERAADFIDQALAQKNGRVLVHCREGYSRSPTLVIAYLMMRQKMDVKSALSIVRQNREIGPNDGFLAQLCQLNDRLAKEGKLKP

CC(OC(=O)/C(C#N)=C/c1ccc(N(C)C)cc1)C(=O)NCc1ccco1 (stereo not drawn)
IC50 (Protein Rev): > 75.5 µM (not active) | IC50 [1]: 6.63 µM (active)

CCCCCC1CC(CC(=O)Nc2ccc([N+](=O)[O-])cc2)C(=O)O1 (stereo not drawn)
IC50 (Fatty acid synthase [2]): 12.5 µM (active) | IC50 (Fatty acid synthase [3]): 16.8 µM (active) | Absolute IC50 (XBP1) (X-box-binding protein 1): < 10 µM

O=C1NC(=O)C(c2ccccc2[N+](=O)[O-])=C1Nc1ccc(O)c(Cl)c1
IC50 (Large T antigen): 55.4 µM (active) | AC50 [4]: 89.1 µM (active) | AC50 [5]: 3.11 µM (active) | AC50 [6]: 5.56 µM (active) | AC50 (Cytochrome P450 3A4): 12.6 µM (inconclusive) | AC50 (Cytochrome P450 1A2): 31.6 µM (inconclusive)

Cc1ccc(C)c(-n2nnnc2Sc2nnnn2-c2ccccc2)c1
IC50 [7]: > 80 µM (inactive) | IC50 (Hexokinase HKDC1): 22.6 µM (inactive) | EC50 (cells [8]): > 350 µM (not active) | EC50 [9]: 9.95 µM (active) | EC50 [10]: 8.15 µM (active) | EC50 (cells [11]): > 350 µM (not active)

COc1ccc(NC(=O)CCCOc2cc(=O)n(C)c3ccccc23)cc1Cl
EC50 [12]: > 49.7 µM (inactive) | EC50 (Wee1-like protein kinase): > 49.7 µM (inactive)

CCN(CC)c1ccc2cc(-c3nnc(-c4ccccc4)o3)c(=O)oc2c1
EC50 [13]: 3.19 µM (active) | EC50 [14]: > 99 µM (inactive) | EC50 [15]: > 99 µM (inactive) | EC50 [16]: 0.931 µM (active)

Cc1cc2c(nc3s/c(=C/c4ccccc4)c(=O)n32)c(Br)c1C
Ki [17]: 28.5 µM (inactive)

CC(N)C(=O)OC(C)(C)Cc1ccc(Cl)cc1 (stereo not drawn) [ALAPROCLATE HYDROCHLORIDE]
IC50 [18]: 8.02 µM (active)

Cc1ccc2cccc(S(=O)(=O)Nc3ccc4c(c3)OCO4)c2n1
IC50 (Bcl-2-like protein 10): > 100 µM (inactive)

Cc1ccccc1NC(=NCCCN1CC1)Nc1ccccc1C
IC50 [19]: 2.8 µM (active) | IC50 [20]: > 66.6 µM (inactive) | CC50 [21]: 7.68 µM (active) | IC50 [22]: 12.5 µM (active) | IC50 (Prothrombin): 30 µM (active) | IC50 (Vero): 20.3 µM (active) | IC50 [23]: > 100 µM (inactive)

— ChEMBL document CHEMBL1201862, “PubChem BioAssay data set” (2004)
